Read-outs that look alike come from different tables or passages of the source. No end group written: not given here.
Columns and labels:
[1] = test system: Colletotrichum lindemuthianum; assay type: cell-based; details: C lindemuthianum
Erwinia carotovora = assay: Antibacterial activity in vitro test; assay type: cell-based; details: E carotovora, 48 hours
Procedure: (§1) The antibacterial activity of the Mj-AMPs was tested against a range of gram-positive and gram-negative bacteria: Bacillus megaterium, Sarcina lutea, Escherichia coli and Erwinia carotovora. β-purothionin and UDA were also tested for comparison (see Example 7). Tests were performed in soft agarose medium containing 1% tryptone and, with or without 1 mM CaCl2 and 50 mM KCl. Absorbance, 595 nm, of the culture was measured after 48 hours.

Escherichia coli = assay: Antibacterial activity in vitro test; assay type: cell-based; details: E coli, 48 hours
Procedure: as §1

Sarcina lutea = assay: Antibacterial activity in vitro test; assay type: cell-based; details: S lutea, 48 hours
Procedure: as §1

Bacillus megaterium = assay: Antibacterial activity in vitro test; assay type: cell-based; details: B megaterium, 48 hours
Procedure: as §1

Phoma betae = assay type: cell-based; details: P betae, 48 hours of incubation
Isoelectric focusing = assay type: physicochemical; details: isoelectric focusing on Immobiline Dry Strips
Procedure: PAS staining for glycoproteins was done by the method of Zacharius, RM et al (1969; Anal Biochem, 30, 148-152) using ovalbumin (3.2% carbohydrate) as a positive control sample. The pI values of Mj-AMP1 and Mj-AMP2 were determined by isoelectric focusing and found to be about 10.5 for both proteins. Isoelectric focussing was done on precast Immobiline Dry Strips (Pharmacia) using marker proteins in the pI range from 4.7 to 10.6 (Pharmacia).

Cercospora beticola = assay: Foliar diseases in vivo test, protectant foliar spray; details: C beticola on sugarbeet, foliar spray 100 μg/ml
Procedure: The plants were grown in John Innes Potting Compost (No 1 or 2) in 4 cm diameter mini-pots. The protein preparation was formulated immediately prior to use by dissolving in sterile deionised water and diluting to the appropriate concentration. It is assumed that the protein extract contains approximately 1% active ingredient. A pure sample of Mj-AMP1 was similarly prepared. The formulations were applied to the plants as a foliar spray. The spray was applied to maximum discrete droplet retention. Tween 20, to give a final concentration of 0.05%, was added when the spray was applied to cereals. The protein preparation was applied to the foliage (by spraying) one or two days before the plant was inoculated with the disease (protectant application). […] After inoculation, the plants were put into an appropriate environment to allow infection to proceed and then incubated until the disease was ready for assessment. […]
Results are shown in Table 3 for the three fungal pathogens: Septoria nodorum (Fungi Imperfecti) tested on wheat, Plasmopara viticola (Phycomycete) tested on grapevine, and Cercospora beticola tested on sugarbeet. The disease control was recorded by the following grading: 4=no disease; 3=trace-5% of disease on untreated plants; 2=6-25% of disease on untreated plants; 1=26-60% of disease on untreated plants; 0=61-100% of disease on untreated plants.

[2] = test system: Fusarium oxysporum f.sp. lycopersici; assay type: cell-based; details: 48 hours of incubation
Pyricularia oryzae = assay type: cell-based
Botrytis cinerea = assay type: cell-based; details: B cinerea, 48 hours of incubation
Fusarium culmorum = assay type: cell-based; details: F culmorum, 48 hours of incubation
[3] = test system: Pyrenophora tritici-repentis; assay type: cell-based; details: P tritici-repentis, 48 hours of incubation
Nectria haematococca = assay type: cell-based; details: N haematococca, 48 hours of incubation
Verticillium dahliae = assay type: cell-based; details: V dahliae, 48 hours of incubation
Alternaria brassicola = assay type: cell-based; details: A brassicola, 48 hours of incubation
Saccharomyces cerevisiae = assay: Inhibitory activity against yeast; assay type: cell-based; parameters: key: +++:complete inhibition; +:some inhibition; -:no inhibition
Procedure: The inhibitory activity of Mj-AMPs against yeast, Saccharomyces cerevisiae was tested. The results shown in Table 5 indicate that Mj-AMPs do inhibit the growth of yeast at concentrations of 500 μg/ml or above.

[4] = test system: Fusarium oxysporum f.sp. pisi; assay type: cell-based; details: 48 hours of incubation
Ascochyta pisi = assay type: cell-based; details: A pisi, 48 hours of incubation
[5] = MEDIUM +Ca/K (1 mM CaCl2 and 50 mM KCl)

**Q.** For “Mj-AMP1: antimicrobial protein from Mirabilis jalapa seeds, dimer of two 4 kDa subunits, 37 residues, SEQ ID NO:1 (QCIGNGGRCNENVGPPYCCSGFCLRQPGQGYGYCKNR; cysteine pairing not given here; also: homodimer)”, which IC50 ([1]; 48 hours of incubation) is on record?
**A.** 6 µg/mL

**Q.** What about the IC50 ([1]; after 72 hours) of the same substance?
**A.** 12 µg/mL

**Q.** And the IC50 (Erwinia carotovora; [5])?
**A.** > 500 µg/mL

**Q.** What about the IC50 (Erwinia carotovora; MEDIUM -Ca/K) of the same substance?
**A.** > 500 µg/mL

**Q.** What about the IC50 (Escherichia coli; [5]) of the same substance?
**A.** > 500 µg/mL

**Q.** And the IC50 (Escherichia coli; MEDIUM -Ca/K)?
**A.** > 500 µg/mL

**Q.** What about the IC50 (Sarcina lutea; [5]) of the same substance?
**A.** > 500 µg/mL

**Q.** And the IC50 (Sarcina lutea; MEDIUM -Ca/K)?
**A.** 100 µg/mL

**Q.** And the IC50 (Bacillus megaterium; [5])?
**A.** 20 µg/mL

**Q.** What about the IC50 (Bacillus megaterium; MEDIUM -Ca/K) of the same substance?
**A.** 6 µg/mL

**Q.** What about the IC50 (Phoma betae) of the same substance?
**A.** 25 µg/mL

**Q.** And the pI (Isoelectric focusing)?
**A.** about 10.5

**Q.** And the Disease control grading (Cercospora beticola)?
**A.** 3 (3=trace-5% of disease on untreated plants)

**Q.** And the IC50 [2]?
**A.** 200 µg/mL

**Q.** What about the IC50 (Pyricularia oryzae) of the same substance?
**A.** 6 µg/mL

**Q.** What about the IC50 (Botrytis cinerea) of the same substance?
**A.** 60 µg/mL

**Q.** And the IC50 (Fusarium culmorum)?
**A.** 30 µg/mL

**Q.** And the IC50 [3]?
**A.** 300 µg/mL

**Q.** And the IC50 (Nectria haematococca)?
**A.** 15 µg/mL

**Q.** What about the IC50 (Verticillium dahliae) of the same substance?
**A.** 12 µg/mL

**Q.** And the IC50 (Alternaria brassicola)?
**A.** 20 µg/mL

**Q.** And the “Inhibitory activity against yeast” value (Saccharomyces cerevisiae; with Ca/K, 5 μg/ml)?
**A.** -

**Q.** And the “Inhibitory activity against yeast” value (Saccharomyces cerevisiae; with Ca/K, 50 μg/ml)?
**A.** -

**Q.** And the “Inhibitory activity against yeast” value (Saccharomyces cerevisiae; with Ca/K, 500 μg/ml)?
**A.** +++

**Q.** And the “Inhibitory activity against yeast” value (Saccharomyces cerevisiae; without Ca/K, 5 μg/ml)?
**A.** +

**Q.** And the “Inhibitory activity against yeast” value (Saccharomyces cerevisiae; without Ca/K, 50 μg/ml)?
**A.** +++

**Q.** What about the “Inhibitory activity against yeast” value (Saccharomyces cerevisiae; without Ca/K, 500 μg/ml) of the same substance?
**A.** +++

**Q.** What about the IC50 [4] of the same substance?
**A.** 15 µg/mL

**Q.** What about the IC50 (Ascochyta pisi) of the same substance?
**A.** 200 µg/mL

From patent publication US5942663A, “Biocidal proteins” (Zeneca Limited, priority 1991, dated 1999)
